Paper PMC6301270 (MedChemComm, 2018)

System: T.b. brucei (strain 427) bloodstream form parasites
Test: T.b. brucei single concentration screen (10 μM)
Settings: Trypanosoma brucei, read-out: T.b.brucei % viability (10 µM)

CC1COC2(CCN(c3nc(=O)c4cc(C(F)(F)F)cc([N+](=O)[O-])c4s3)CC2)O1 (stereo not shown) [MMV676603, CC1COC2(CCN(CC2)C3=NC(=O)c4cc(cc(c4S3)[N+](=O)[O-])C(F)(F)F)O1] gave a viability at 10 µM of 82%.

In the case of C[C@]1(O)C[C@@H](c2nc(-c3ccc4ccc(-c5ccccc5)nc4c3)c3c(N)nccn32)C1 [MMV676605, C[C@@]1(O)C[C@@H](C1)c2nc(c3ccc4ccc(nc4c3)c5ccccc5)c6c(N)nccn26], the viability at 10 µM is reported as 67%.

In the case of O=C(c1ccc(NCCO)cc1)C1C[C@H]1c1ccc(Cl)cc1 (stereo partly shown) [MMV676877, OCCNc1ccc(cc1)C(=O)C2C[C@H]2c3ccc(Cl)cc3], the viability at 10 µM is reported as 102%.

CCn1cnc2c(Nc3cc(F)cc(F)c3)nc(C#N)nc21 [MMV676881, CCn1cnc2c(Nc3cc(F)cc(F)c3)nc(nc12)C#N] was tested, and the viability at 10 µM was 70%.

NC(=O)c1cc(-c2ccsc2)ccc1OCCOc1ccccc1 [MMV687138, NC(=O)c1cc(ccc1OCCOc2ccccc2)c3ccsc3] gave a viability at 10 µM of 104%.

CCCCS(=O)(=O)Nc1ccc2cnn(C)c2c1 [MMV687145, CCCCS(=O)(=O)Nc1ccc2cnn(C)c2c1] showed a viability at 10 µM of 95%.

Work on Cc1cc(C)c2cc(C(=O)NC3CCCCCCC3)[nH]c2c1 [MMV687146, Cc1cc(C)c2cc([nH]c2c1)C(=O)NC3CCCCCCC3] yielded a viability at 10 µM of 92%.

COc1ccc(Cn2cnc3c(-c4ccco4)nc(Cl)nc32)cc1 [MMV687170, COc1ccc(Cn2cnc3c(nc(Cl)nc23)c4occc4)cc1] gave a viability at 10 µM of 97%.

O=C(C1CCN(c2cc(-n3cccc3)ncn2)CC1)N1CCc2ccccc2C1 [MMV687172, O=C(C1CCN(CC1)c2cc(ncn2)n3cccc3)N4CCc5ccccc5C4] was tested, and the viability at 10 µM was 93%.

Work on CCc1ccc([C@@H]2C[C@H](C(F)(F)F)n3ncc(C(=O)NCc4ccc(OC)cc4)c3N2)cc1 [MMV687180, CCc1ccc(cc1)[C@@H]2C[C@@H](n3ncc(C(=O)NCc4ccc(OC)cc4)c3N2)C(F)(F)F] yielded a viability at 10 µM of 57%.

COc1ccc2nc(C)cc(OCC(=O)Nc3ccccc3OC)c2c1 [MMV687188, COc1ccc2nc(C)cc(OCC(=O)Nc3ccccc3OC)c2c1] showed a viability at 10 µM of 92%.

COc1ccc2nc(C)cc(OCC(=O)NCc3ccccc3)c2c1 [MMV687189, COc1ccc2nc(C)cc(OCC(=O)NCc3ccccc3)c2c1] gave a viability at 10 µM of 92%.

With CC(C)(C(=O)Nc1ccc(F)cc1)n1cc(-c2ccccc2F)cn1 [MMV687239, CC(C)(C(=O)Nc1ccc(F)cc1)n2cc(cn2)c3ccccc3F] the viability at 10 µM was 89%.

With NC(=O)c1cc(Br)ccc1OCCOc1ccccc1 [MMV687243, NC(=O)c1cc(Br)ccc1OCCOc2ccccc2] the viability at 10 µM was 92%.

Compound CN1CCN(S(=O)(=O)c2ccc(-c3ccc4c(Nc5ccc6nn[nH]c6c5)ccnc4c3)cc2)CC1 [MMV687246, CN1CCN(CC1)S(=O)(=O)c2ccc(cc2)c3ccc4c(Nc5ccc6nn[nH]c6c5)ccnc4c3] has a viability at 10 µM of 106%.

In the case of Cn1c(=O)c2c(S(C)(=O)=O)snc2n(C)c1=O [MMV687251, CN1C(=O)N(C)c2nsc(c2C1=O)S(=O)(=O)C], the viability at 10 µM is reported as 98%.

With CCCCc1ccc(C(=O)Nc2nccc3ccccc23)nc1 [MMV687254, CCCCc1ccc(nc1)C(=O)Nc2nccc3ccccc23] the viability at 10 µM was 81%.

CCc1nc2ccc(Cl)cn2c1C(=O)NCc1ccc(N2CCC(c3ccc(OC(F)(F)F)cc3)CC2)cc1 [MMV687696, CCc1nc2ccc(Cl)cn2c1C(=O)NCc3ccc(cc3)N4CCC(CC4)c5ccc(OC(F)(F)F)cc5] gave a viability at 10 µM of 99%.

Compound O=C(NCc1cc(Cl)cc(Cl)c1)c1c(C(F)(F)F)nc2ccccn12 [MMV687699, FC(F)(F)c1nc2ccccn2c1C(=O)NCc3cc(Cl)cc(Cl)c3] has a viability at 10 µM of 99%.

Nc1ncnc2c1ncn2[C@@H]1O[C@H](COS(=O)(=O)NC(=O)c2ccccc2O)[C@@H](O)[C@H]1O [MMV687700, Nc1ncnc2c1ncn2[C@@H]3O[C@H](COS(=O)(=O)NC(=O)c4ccccc4O)[C@@H](O)[C@H]3O] showed a viability at 10 µM of 104%.

O=C1O[C@@H](CO)CN1c1cc(F)c(C2=CCN(Cc3ccccc3)CC2)c(F)c1 [MMV687729, OC[C@H]1CN(C(=O)O1)c2cc(F)c(C3=CCN(Cc4ccccc4)CC3)c(F)c2] showed a viability at 10 µM of 101%.

CCCCOC(=O)Nc1cc2nc(C3CCCCC3)[nH]c2cc1N1CCCC1 [MMV687730, CCCCOC(=O)Nc1cc2nc([nH]c2cc1N3CCCC3)C4CCCCC4] showed a viability at 10 µM of 61%.

Work on Cc1cc(OCC(=O)NCc2ccccc2)c2cc(Br)ccc2n1 [MMV687747, Cc1cc(OCC(=O)NCc2ccccc2)c3cc(Br)ccc3n1] yielded a viability at 10 µM of 89%.

Work on c1ccc(C[C@@H]2CN(c3nccc(Oc4ccc(-n5ccnc5)cc4)n3)CCN2)cc1 [MMV687749, C([C@@H]1CN(CCN1)c2nccc(Oc3ccc(cc3)n4ccnc4)n2)c5ccccc5] yielded a viability at 10 µM of 60%.

CC1(C)OB(O)c2ccc(C3=NOC(c4cc(Cl)c(F)c(Cl)c4)(C(F)(F)F)C3)cc21 (stereo not shown) [MMV687775, CC1(C)OB(O)c2ccc(cc12)C3=NOC(C3)(c4cc(Cl)c(F)c(Cl)c4)C(F)(F)F] was tested, and the viability at 10 µM was 33%.

CC1(C)Cc2c(c(N3CCOCC3)nc3snc(Br)c23)CO1 [MMV687794, CC1(C)Cc2c(CO1)c(nc3snc(Br)c23)N4CCOCC4] showed a viability at 10 µM of 50%.

Work on O=C1O[C@@H](COc2ccon2)CN1c1cc(F)c(C2=CCN(Cc3ccccc3)CC2)c(F)c1 [MMV687813, Fc1cc(cc(F)c1C2=CCN(Cc3ccccc3)CC2)N4C[C@H](COc5ccon5)OC4=O] yielded a viability at 10 µM of 113%.

Cc1cccc(-c2nc(Nc3ccncn3)c3sccc3n2)n1 [MMV688122, Cc1cccc(n1)c2nc(Nc3ccncn3)c4sccc4n2] showed a viability at 10 µM of 85%.

CCc1ccc(S(=O)(=O)Nc2cc(CN3CCN(CCC(C)C)CC3)ccc2C)cc1 [MMV688124, CCc1ccc(cc1)S(=O)(=O)Nc2cc(CN3CCN(CCC(C)C)CC3)ccc2C] gave a viability at 10 µM of 84%.

With CCCc1ccc(S(=O)(=O)Nc2ccc(CN3CCN(CC4CC4)CC3)cc2)cc1 [MMV688125, CCCc1ccc(cc1)S(=O)(=O)Nc2ccc(CN3CCN(CC4CC4)CC3)cc2] the viability at 10 µM was 72%.

In the case of c1ccc(Oc2ccc(-c3cncc(-c4ccc5[nH]ccc5c4)n3)cc2)cc1 [MMV688178, O(c1ccccc1)c1ccc(cc1)-c1cncc(n1)-c1ccc2[nH]ccc2c1], the viability at 10 µM is reported as 101%.

In the case of CC1(COc2ccc(N3CCC(Oc4ccc(OC(F)(F)F)cc4)CC3)cc2)Cn2cc([N+](=O)[O-])nc2O1 (stereo not shown) [MMV688262, CC1(COc2ccc(cc2)N3CCC(CC3)Oc4ccc(OC(F)(F)F)cc4)Cn5cc(nc5O1)N(=O)=O], the viability at 10 µM is reported as 74%.

COc1ccc(-c2cnc3cnc(-c4cccc(OC(C)C)c4)cn23)cc1 [MMV688270, COc1ccc(cc1)-c1cnc2cnc(cn12)-c1cccc(OC(C)C)c1] gave a viability at 10 µM of 99%.

With Nc1ccc2ncnc(Nc3ccc(OCc4cccc(F)c4)c(Cl)c3)c2c1 [MMV688273, Nc1ccc2ncnc(Nc3ccc(OCc4cccc(F)c4)c(Cl)c3)c2c1] the viability at 10 µM was 56%.

In the case of O=C(CN1CCOCC1)Nc1ccc2ncnc(Nc3ccc(OCc4cccc(F)c4)c(Cl)c3)c2c1 [MMV688274, Fc1cccc(COc2ccc(Nc3ncnc4ccc(NC(=O)CN5CCOCC5)cc34)cc2Cl)c1], the viability at 10 µM is reported as 63%.

Work on COc1ccc(-c2nnc3ccc(-c4cccc(C(C)C)c4)cn23)cc1OC [MMV688313, COc1ccc(cc1OC)-c1nnc2ccc(cn12)-c1cccc(c1)C(C)C] yielded a viability at 10 µM of 92%.

Work on CC(=O)NCC1CN(c2ccc(-c3ccc(CNCc4cn[nH]n4)cc3)c(F)c2)C(=O)O1 (stereo not shown) [MMV688327, CC(=O)NCC1CN(C(=O)O1)c2ccc(c(F)c2)c3ccc(CNCc4cn[nH]n4)cc3] yielded a viability at 10 µM of 68%.

CC(=O)N1CCN(c2ccc(Oc3ccc(Cl)cc3O)cc2)CC1 [MMV688330, CC(=O)N1CCN(CC1)c1ccc(Oc2ccc(Cl)cc2O)cc1] showed a viability at 10 µM of 103%.

In the case of Nc1nc(N)c2c3c(sc2n1)CN(Cc1ccccc1)CC3 [MMV688345, Nc1nc(N)c2c3CCN(Cc4ccccc4)Cc3sc2n1], the viability at 10 µM is reported as 110%.

Compound COC(=O)c1ccc(F)cc1NS(=O)(=O)c1cccc(-c2cnn(Cc3ccccc3)c2)c1 [MMV688350, COC(=O)c1ccc(F)cc1NS(=O)(=O)c2cccc(c2)c3cnn(Cc4ccccc4)c3] has a viability at 10 µM of 85%.

O=C1[C@@H](Oc2ccccc2)[C@@H](c2ccc(Cl)cc2)N1CCn1cnc2c(NCc3ccccc3)ncnc21 [MMV688352, Clc1ccc(cc1)[C@@H]2[C@H](Oc3ccccc3)C(=O)N2CCn4cnc5c(NCc6ccccc6)ncnc45] showed a viability at 10 µM of 107%.

c1cc(C2=NCCN2)cc(-c2cc(-c3ccc(C4=NCCN4)cc3)no2)c1 [MMV688361, C1CN=C(N1)c2ccc(cc2)c3cc(on3)c4cccc(c4)C5=NCCN5] showed a viability at 10 µM of 18%.

Work on COc1cc(C2=NCCN2)cc2cc(-c3ccc(C4=NCCN4)cc3)oc12 [MMV688362, COc1cc(cc2cc(oc12)c3ccc(cc3)C4=NCCN4)C5=NCCN5] yielded a viability at 10 µM of 35%.

Compound CC(C)(C)OC(=O)N1CCC(Cn2nc(-c3cnc4ccccc4c3)c3c(N)ncnc32)CC1 [MMV688364, CC(C)(C)OC(=O)N1CCC(Cn2nc(-c3cnc4ccccc4c3)c3c(N)ncnc23)CC1] has a viability at 10 µM of 102%.

For COc1cc(C2=NCCN2)ccc1-c1cn(-c2cccc(C3=NCCN3)c2)nn1 [MMV688407, COc1cc(ccc1c2cn(nn2)c3cccc(c3)C4=NCCN4)C5=NCCN5], the viability at 10 µM was 87%.

Compound CC1=Nc2ccc(Cl)cc2C(c2ccccc2)N1CCNC(=O)CN(C)C (stereo not shown) [MMV688410, CN(C)CC(=O)NCCN1C(c2ccccc2)c3cc(Cl)ccc3N=C1C] has a viability at 10 µM of 77%.

In the case of Nc1ncnc2c1c(-c1cnc3ccccc3c1)nn2CC1CCNCC1 [MMV688411, Nc1ncnc2n(CC3CCNCC3)nc(-c3cnc4ccccc4c3)c12], the viability at 10 µM is reported as 104%.

CO[C@@H]1CN(c2ccc(C#CC3(O)CN4CCC3CC4)c(Cc3ccccc3)n2)C[C@H]1O (stereo partly shown) [MMV688415, CO[C@@H]1CN(C[C@H]1O)c2ccc(C#CC3(O)CN4CCC3CC4)c(Cc5ccccc5)n2] showed a viability at 10 µM of 99%.

With CC(C)(C)OC(=O)N1CCN(c2nccc(-c3ccc(-c4ccc(Cl)cc4)s3)n2)CC1 [MMV688416, CC(C)(C)OC(=O)N1CCN(CC1)c2nccc(n2)c3ccc(s3)c4ccc(Cl)cc4] the viability at 10 µM was 94%.

For Cn1ccnc1CNCCS(=O)(=O)c1cccc(Nc2ccc(-c3cccc(F)c3)cn2)c1 [MMV688466, Cn1ccnc1CNCCS(=O)(=O)c2cccc(Nc3ccc(cn3)c4cccc(F)c4)c2], the viability at 10 µM was 87%.

Compound Nc1ncnc2[nH]nc(Cc3cccc4ccccc34)c12 [MMV688469, Nc1ncnc2[nH]nc(Cc3cccc4ccccc34)c12] has a viability at 10 µM of 98%.

Compound CS(=O)(=O)N1CCC(CCn2nc(Cc3cccc4ccccc34)c3c(N)ncnc32)CC1 [MMV688470, CS(=O)(=O)N1CCC(CCn2nc(Cc3cccc4ccccc34)c3c(N)ncnc23)CC1] has a viability at 10 µM of 99%.
